These results are taken from patent US20090197949A1, “ANTITUMOR METHODS AND COMPOSITIONS COMPRISING SESQUITERPENE DERIVATIVES” (F.P.L. Pharma, Inc., priority 2001, published 2009).

Where two headings read alike, the source gives them in different places. Some results are limits rather than exact numbers.

The test system of assay [1] is L-929 mouse subcutaneous connective tissue (fibroblast). The assay can be described thus: In vitro survival assay, resazurin reduction test, L-929. The assay is classed as cell-based. The note with it: L929, L-929, 48 h. The source says: (§1) Normal human fibroblasts were purchased from Biopredic International (Rennes, France). This frozen culture was obtained from a person abdominal surgical waste and the cells used in this work was from the 7th to the 12th passage of the culture. M4Beu and […], human melanoma cell lines, was established in the laboratory of Dr. J. F. Doré (Institut National de la Santé et de la Recherche Médicale-INSERM, Unit 218, Lyon, France) from metastatic biopsy specimens (Thomasset, N. et al.; British Journal of Cancer, 46, 58-66 (1982)). Murine colon carcinoma cell line CT-26 was obtained from Dr I. J. Fidler (University of Texas M.D. Anderson Cancer Center, Houston). […] The effect of essential oils and compounds of oil on the proliferation of tumour cells was assessed using resazurin reduction test. […] The plates were incubated 1 h at 37° C. in an humidified atmosphere with 5% of CO2 for fluorescence development by living cells. Fluorescence was then measured on the automated 96-well plate reader Fluoroskan Ascent FLTM (Labsystems) using an excitation wavelength of 530 nm and an emission one of 590 nm. […] The essentials oil of jack pine (Pinus banksiana or Pinus divaricata), eastern white cedar (Thuya occidentalis), balsam fir (Abies balsamea), were evaluated for their cytotoxic activity against various tumor cell lines (Table 1). […]
A general note: Alamar Blue is a resazurin reagent that responds to reducing activity.

Assay [2] concerns CT-26 mouse colon carcinoma. Nature of the assay: In vitro survival assay, resazurin reduction test, CT-26. The assay is classed as cell-based. The note with it: CT26, CT-26, 48 h.
Description: as §1

Assay [3] has as its system tumor cell lines. The assay can be described thus: In vitro cytotoxic/antitumoral activity against tumor cell lines (panel statement). In kind it is cell-based.
Description: Cells were plated at a density of 5×10^3 cells per well in 96-well microplates (Nunclon™, Nunc) in 100 μl of culture medium and were allowed to adhere for 16 h before treatment. Then, 100 μl of culture medium containing essential oil of Pinus divaricata, essential oil of Thuya occidentalis, essential oil of Abies balsamea, α-humulene (Sigma-Aldrich); isocaryophyllene (Sigma-Aldrich) were added and incubated at 37° C. for 48 h. All compounds were dissolved in ethanol and the final concentration of ethanol in the culture medium was maintained at 0.5% (v/v). The effect of essential oils and compounds of oil on the proliferation of tumour cells was assessed using resazurin reduction test.
The resazurin reduction test (RRT) was carried out according to the protocol described here. Briefly, plates were rinsed by 200 μl PBS (37° C., Gibco) at 37° C. using an automatic microplate washer (Cell Wash™, Labsystems, Helsinki, Finland) and emptied by overturning on absorbent toweling. […] The plates were incubated 1 h at 37° C. in an humidified atmosphere with 5% of CO2 for fluorescence development by living cells. Fluorescence was then measured on the automated 96-well plate reader Fluoroskan Ascent FL™ (Labsystems) using an excitation wavelength of 530 nm and an emission one of 590 nm.
Assay [4] relates to Normal human fibroblasts. Nature of the assay: In vitro survival assay, resazurin reduction test, normal fibroblasts. The assay is classed as cell-based. The note with it: Fibroblast.
Description: as §1, with “Houston). Breast cancer adenocarcinoma MCF-7 and MDA-MB-231, prostatic adenocarcinoma PC-3, ovary adenocarcinoma SK-OV-3, lung carcinoma A-549, colon adenocarcinoma DLD-1, human cell lines and melanoma 1B16 and fibroblast L-929 murine cell lines were purchased from American Type of Culture Collection (ATCC) or the European Collection of Cell Cultures (ECACC; Salisbury, United-Kingdom).” for “Houston).”, “1). The cell growth inhibition were measured by the fluorescence induced by the metabolic transformation of resazurin in resorufin.” for “1).”

For assay [5], the system named is MCF-7 human breast adenocarcinoma. The assay can be described thus: cells. The assay is classed as cell-based. The source says:
(§2) Normal human fibroblasts were purchased from Biopredic International (Rennes, France). This frozen culture was obtained from a person abdominal surgical waste and the cells used in this work was from the 7th to the 12th passage of the culture. M4Beu and […], human melanoma cell lines, was established in the laboratory of Dr. J. F. Doré (Institut National de la Santé et de la Recherche Médicale-INSERM, Unit 218, Lyon, France) from metastatic biopsy specimens (Thomasset, N. et al.; British Journal of Cancer, 46, 58-66 (1982)). Murine colon carcinoma cell line CT-26 was obtained from Dr I. J. Fidler (University of Texas M.D. Anderson Cancer Center, Houston). Breast cancer adenocarcinoma MCF-7 and MDA-MB-231, prostatic adenocarcinoma PC-3, ovary adenocarcinoma SK-OV-3, lung carcinoma A-549, colon adenocarcinoma DLD-1, human cell lines and melanoma 1B16 and fibroblast L-929 murine cell lines were purchased from American Type of Culture Collection (ATCC) or the European Collection of Cell Cultures (ECACC; Salisbury, United-Kingdom). Stock cell cultures were maintained as monolayers in 75-cm^2 culture flasks in GlutamaxTM Eagle's minimum essential medium with Earle's salts (Gibco-BRL, Paisley, Scotland) supplemented with 10% foetal calf serum (Sigma), and 5 ml of a 100× solution of vitamins (Gibco), 5 ml of 100 mM sodium pyruvate (Gibco), 5 ml of 100× non-essential amino acids (Gibco) and 2 mg of gentamicin base (Gibco). Cells were grown in a humidified 37° C. incubator containing 5% CO2. Cells were plated at a density of 5×10^3 cells per well in 96-well microplates (NunclonTM, Nunc) in 100 μl of culture medium and were allowed to adhere for 16 h before treatment. Then, 100 μl of culture medium containing essential oil of Pinus divaricata, essential oil of Thuya occidentalis, essential oil of Abies balsamea, α-humulene (Sigma-Aldrich); isocaryophyllene (Sigma-Aldrich) were added and incubated at 37° C. for 48 h. All compounds were dissolved in ethanol and the final concentration of ethanol in the culture medium was maintained at 0.5% (v/v). The effect of essential oils and compounds of oil on the proliferation of tumour cells was assessed using resazurin reduction test. Resazurin was recently identified as the alamar Blue dye (O'Brien, J. et al.; European Journal of Biochemistry, 267, 5421-6, (2000)). The resazurin reduction test (RRT) was carried out according to the protocol described here. Briefly, plates were rinsed by 200 μl PBS (37° C., Gibco) at 37° C. using an automatic microplate washer (Cell WashTM, Labsystems, Helsinki, Finland) and emptied by overturning on absorbent toweling. Then, 150 μl of a 25 μg/ml solution of resazurin in RPMI 1640 without Phenol red was added in each well using an automatic microvolume dispenser (Multidrop 384TM Labsystems). The plates were incubated 1 h at 37° C. in an humidified atmosphere with 5% of CO2 for fluorescence development by living cells. Fluorescence was then measured on the automated 96-well plate reader Fluoroskan Ascent FLTM (Labsystems) using an excitation wavelength of 530 nm and an emission one of 590 nm. The fluorescence is proportional to the number of living cells in the well and IC50 (drug concentration required to inhibit cell proliferation by 50%) was calculated from the curve of concentration-dependent survival percentage, defined as the fluorescence in experimental wells as a percentage of that in control wells, with blank values subtracted. The essentials oil of jack pine (Pinus banksiana or Pinus divaricata), eastern white cedar (Thuya occidentalis), balsam fir (Abies balsamea), were evaluated for their cytotoxic activity against various tumor cell lines (Table 1). The cell growth inhibition were measured by the fluorescence induced by the metabolic transformation of resazurin in resorufin. The fluorescence is proportional to living cells and allow to evaluate the concentration inhibiting 50% of cell growth (IC50).

The subject of assay [6] is PC-3 human prostatic adenocarcinoma. Nature of the assay: cells. The assay is classed as cell-based.
Description: as §2

Assay [7] has as its system DLD-1 human colon adenocarcinoma. Nature of the assay: cells. The assay is classed as cell-based.
Description: as §2

The subject of assay [8] is M4BEU human melanoma. Nature of the assay: cells. In kind it is cell-based.
Description: as §2

Assay [9] deals with A-549 human lung carcinoma. The assay can be described thus: cells. The assay is classed as cell-based.
Description: as §2

Assay [10] has as its system glutathione-S-transferase. The note with it: Zheng et al. 1992; cited from earlier work.
Assay [11] deals with about ten tumor cell lines. The note with it: Kaneda et al. 1992; cited from earlier work.
Assay [12] relates to gastric mucosal injuries induced by necrotizing agents. The note with it: necrotizing agents such as absolute ethanol and HCl; Tambe et al. 1996; cited from earlier work.
[13] abbreviates: MCF7, MCF-7, 48 h, read-out: IC50.
[14] abbreviates: A549, A-549, 48 h, read-out: IC50.

Turning to `C=C1CCC=C(C)CC[C@H]2[C@@H]1CC2(C)C` (relative stereo) [Isocaryophyllene, cis-4,11,11-Trimethyl-8-methylenebicyclo[7.2.0]undec-4-ene], the IC50 was 34 ± 0.8 µM in assay [1]; 46 ± 1 µM in [2]; below 100 µM in assay [3] (all tumor cells tested, Table 2); 124 ± 15 µM in assay [4] (48 h, read-out: IC50); above 100 µM in assay [4] (fibroblastic normal cell, Table 2, read-out: activity against fibroblastic normal cell); 84 ± 6 µM in assay [5] (setting [13]). Also, the IC50 in assay [6] (PC-3, 48 h, read-out: IC50) was determined as 87 ± 8 µM; in assay [7] (DLD-1, 48 h, read-out: IC50), 124 ± 17 µM; in assay [8] (48 h, read-out: IC50) it was 43 ± 3 µM; in [9] (setting [14]), 59 ± 4 µM.
For the molecule `CC1=CCCC(C)=CCC(C)(C)C=CC1` [α-humulene, 2,6,6,9-Tetramethyl-1,4,8-cycloundecatriene], the IC50 in assay [1] is 50.2 ± 0.3 µM; in assay [2], 53 ± 1 µM; in assay [4] (48 h, read-out: IC50), 85 ± 5 µM; in assay [5] (setting [13]) it was 73 ± 2 µM; in [5] (MCF7, read-out: cytotoxic activity) it was below 100 µM; in assay [6] (PC-3, 48 h, read-out: IC50), 73 ± 2 µM. Besides, the IC50 in [6] (read-out: cytotoxic activity) is below 100 µM; in assay [7] (DLD-1, 48 h, read-out: IC50) it was 71 ± 2 µM; in assay [7] (DLD-1, read-out: cytotoxic activity), below 100 µM; in [8] (48 h, read-out: IC50) it was 55 ± 2 µM; in [8] (read-out: cytotoxic activity) it was below 100 µM; in assay [9] (setting [14]), 68 ± 2 µM. The IC50 in assay [9] (A549, read-out: cytotoxic activity) is below 100 µM. Further, in assay [10], the “glutathione-S-transferase activity in vivo” value is recorded as “increasing of gluthatione-S-transferase activity”.
As for `C=C1CC[C@H]2O[C@]2(C)CC[C@@H]2[C@@H]1CC2(C)C` [β-caryophyllene oxide], the “activity in vitro against about ten tumor cell lines” value in assay [11] was “inactive”. In addition, in assay [10], the “glutathione-S-transferase activity in vivo” value is recorded as “increasing of gluthatione-S-transferase activity”. For the same molecule, the “antitumoral activity in vitro, evaluated by the Applicants” value in [3] is recorded as “no significant bioactivity”.
Consider `C=C1CC/C=C(\C)CC[C@@H]2[C@@H]1CC2(C)C` [β-caryophyllene], for which the “glutathione-S-transferase activity in vivo” value in [10] is “increasing of gluthatione-S-transferase activity”. In addition, the gastric cytoprotection effect entry in assay [12] was “inhibition of gastric mucosal injuries”. Further, in assay [3], the “antitumoral activity in vitro, evaluated by the Applicants” value was “no significant bioactivity”.
